{
  "source": "patent US10016417B2",
  "about": "“Extended release formulation of a direct thrombin inhibitor” (Diakron Pharmaceuticals Inc., priority 2011, dated 2018)",
  "key": {"thrombin [1]": {"test_system": "thrombin", "test": "Single dose crossover study: thrombin time (TT)", "type": "in vivo, human", "conditions": "by 48 hrs; returned to within", "method": "As used herein, the term “thrombin time (TT)” is the time required for plasma fibrinogen to form […], measured as the time for clot formation after exogenous thrombin is added to citrated plasma.\n(§1) Four formulations having same composition as those described in Example 1 were dosed in a clinical study. […] (reported as the international normalized ratio [INR]); (i.e. PD parameters) and (3) assess the safety of DPOC-4088 in healthy volunteers.\n(§2) Twelve subjects aged 21 to 45 (mean 32.9±8.55) years were enrolled, and were dosed in 4 periods after an overnight fast and had blood drawn for PK/PD determinations immediately prior to dosing and at specified time intervals for 48 hrs post-dosing. Each dosing period was separated by a ≥5-day washout. The observed PK and PD parameters are tabulated as Table 12."}, "[2]": {"test": "Single dose crossover study: safety", "type": "in vivo, human", "method": "as §1\nTwelve subjects aged 21 to 45 (mean 32.9±8.55) years were enrolled, and were dosed in 4 periods after an overnight fast and had blood drawn for PK/PD determinations immediately prior to dosing and at specified time intervals for 48 hrs post-dosing. Each dosing period was separated by a ≥5-day washout."}, "[3]": {"test": "Multiple once-daily oral dosing study, Dose Step 1 100 mg q.d.: PK", "type": "in vivo, human", "conditions": "assuming dose linearity from Day 10 PK data", "method": "(§3) Randomized, double-blind, placebo-controlled, stepwise study of the pharmacokinetics (PK), pharmacodynamics (PD), PK/PD characteristics and safety of multiple once-daily oral dosing of DPOC-4088 in healthy young male subjects\nPreliminary Safety, PK, and PD Results Dose Step 1: 100 mg q.d.\nMean PK profiles of DPOC-4088 on Day 1 (first dose) and Day 10 (steady-state) are shown in FIGS. 14 a-b, respectively. • On Day 1, the mean PK profile was in line with observation from the previous single dose study (DPOC-001). • The degree of accumulation to steady-state levels was modest with a Day 10/Day 1 ratio for AUC24h of 1.4. […] Pharmacodynamics"}, "[4]": {"test": "Multiple once-daily dosing study: safety", "type": "in vivo, human", "from_the_text": "as §3\n10 healthy volunteers participated in the first step of the multiple dose study (8 received DPOC-4088 and 2 received placebo). […] Minor AEs were reported. All AEs were grade 1, transient and were resolved. No bruising (except for puncture site hematomas) or petechiae were reported and the physical (including neurological) exams were normal in all volunteers. The lab exams were within normal limits or deviating without clinical significance."}, "thrombin [5]": {"molecular_target": "T1, thrombin (Homo sapiens, UniProt P00734)", "test": "Single dose crossover study: activated partial thromboplastin time (aPTT)", "type": "in vivo", "set-up": "from tissue; host or cells: blood plasma of dosed subjects", "conditions": "24 hrs post-dose", "method": "(§4) As used herein, the term “activated partial thromboplastin time (aPTT)” is the period required for clot formation in recalcified blood plasma after contact activation and the addition of platelet substitutes. This measure is used to address the intrinsic and common pathways of coagulation.\nas §1, §2"}, "thrombin [6]": {"molecular_target": "T1, thrombin", "test": "Single dose crossover study: prothrombin time PT (INR)", "type": "in vivo", "set-up": "from tissue; host or cells: blood plasma of dosed subjects", "method": "As used herein, the term “prothrombin time (PT)” is the rate at which prothrombin is converted to thrombin in citrated blood with added calcium. This is used to assess the extrinsic coagulation system of the blood\nas §1, §2"}, "thrombin [7]": {"molecular_target": "T1, thrombin", "test": "Multiple once-daily dosing study: aPTT", "type": "in vivo", "set-up": "from tissue; host or cells: blood plasma of dosed subjects", "conditions": "at maximum levels, from regression analyses", "from_the_text": "as §4, §3\nMean maximum and minimum fold changes compared to baseline (Day 1, pre dose) in ECT, aPTT and PT on Day 10 are shown in Table 15. […] Minimum changes in ECT and aPTT on Day 10 were 1.12 and 1.10 respectively (Table 16). These values are lower than the target values defined in the protocol which were 2 and 1.5, respectively, at steady-state trough levels (see below). • Linear regression on the changes in ECT and aPTT versus DPOC-4088 plasma levels was performed. […] For ECT the changes would be 2.4 and 3.1 fold respectively. • For reference, for dabigatran, clinically relevant doses result in changes in aPTT of approximately 1.50 fold at trough levels and 2-fold at maximum levels. For ECT these changes are approximately 2-fold at trough levels and 3-fold at maximum levels."}, "thrombin [8]": {"molecular_target": "T1, thrombin", "test": "Single dose crossover study: ecarin clotting time (ECT)", "type": "in vivo", "set-up": "a prothrombin-thrombin intermediate which retains the full molecular weight of prothrombin; from tissue; host or cells: blood plasma of dosed subjects", "procedure": "In the assay, a known quantity of ecarin is added to the plasma of a patient treated with hirudin."}, "thrombin [9]": {"molecular_target": "T1, thrombin", "test": "Multiple once-daily dosing study: ECT", "type": "in vivo", "set-up": "a prothrombin-thrombin intermediate which retains the full molecular weight of prothrombin; from tissue; host or cells: blood plasma of dosed subjects", "conditions": "at maximum levels, from regression analyses", "source_text": "ECT is prolonged in a specific and linear fashion with increasing concentrations of hirudin."}},
  "data": [
    {"molecule": "O=C(Cn1c(Cl)cnc(NCC(F)(F)c2ccccn2)c1=O)NCc1ncccc1F", "note": "[DPOC-4088, 3-fluoro-2-pyridylmethyl-3-(2,2-difluoro-2-(2-pyridyl)ethylamino)-6-chloropyrazin-2-one-1-acetamide]", "values": [
      {"measurement": "mean TT relative to pre-dosing TT", "setting": "thrombin [1]", "value": "1-15%"},
      {"measurement": "safety and tolerability", "setting": "[2]; 100 and 200 mg doses, both release formulations", "value": "safe and well-tolerated"},
      {"measurement": "Adverse events (AEs), subjects", "setting": "[2]; most grade 1, unrelated or unlikely related", "value": "9/12"},
      {"measurement": "expected maximum DPOC-4088 levels", "setting": "[3]; daily dose 200 mg", "value": "~2000", "unit": "nM"},
      {"measurement": "expected maximum DPOC-4088 levels", "setting": "[3]; daily dose 300 mg", "value": "~3000", "unit": "nM"},
      {"measurement": "safety conclusion", "setting": "[4]; 100 mg level, after 10 days of oral administration", "value": "very safe"},
      {"measurement": "treatment emergent serious adverse events (AEs)", "setting": "[4]; 100 mg q.d., 8 on DPOC-4088", "value": "No treatment emergent serious adverse events"},
      {"measurement": "mean aPTT above the pre-dose aPTT", "setting": "thrombin [5]; 100 mg", "value": "12-15%"},
      {"measurement": "mean aPTT above the pre-dose aPTT", "setting": "thrombin [5]; 200 mg", "value": "21-24%"},
      {"measurement": "mean peak INR", "setting": "thrombin [6]; single dose 100 mg formulations", "value": "1.15-1.17"},
      {"measurement": "mean peak INR", "setting": "thrombin [6]; single dose 200 mg formulations", "value": "1.28-1.30"},
      {"measurement": "time at which mean peak INRs were reached", "setting": "thrombin [6]; single doses of 100 or 200 mg", "value": 4, "unit": "h"},
      {"measurement": "aPTT expected fold change from baseline", "setting": "thrombin [7]; Day 10, 200 mg once daily", "value": 1.8, "unit": "fold"},
      {"measurement": "aPTT expected fold change from baseline", "setting": "thrombin [7]; Day 10, 300 mg once daily", "value": 2.2, "unit": "fold"},
      {"measurement": "mean 24 hr ECT above the pre-dose ECT", "setting": "thrombin [8]; 100 mg dose", "value": "21-23%"},
      {"measurement": "mean 24 hr ECT above the pre-dose ECT", "setting": "thrombin [8]; 200 mg dose", "value": "35-36%"},
      {"measurement": "ECT expected fold change from baseline", "setting": "thrombin [9]; Day 10, 200 mg once daily", "value": 2.4, "unit": "fold"},
      {"measurement": "ECT expected fold change from baseline", "setting": "thrombin [9]; Day 10, 300 mg once daily", "value": 3.1, "unit": "fold"}
    ]}
  ]
}
